row,SMILES,melting point
1,c1ccc2c(c1)CCn1ccnc1C2=C1CCN(CCn2cccc2)CC1,166 °C
2,N#Cc1cc(C=O)cnc1Cl,96 °C
3,Cc1[nH]c2cccc(/C=C/C(=O)OCc3ccccc3)c2c1Cn1ccnc1,207 to 208 °C
4,CN(Cc1ccc(C=CC(=O)O)cc1)S(=O)(=O)c1ccccc1,112 °C
5,O=C1CCCC(=O)N1c1cc(Br)cc(Br)c1,152 to 154 °C
6,ON=C1CCCc2cc(OCCn3ccnc3)ccc21,177 to 179 °C
7,N#CCN1C(=O)COc2cc(F)c(N3C(=O)C4=C(CCCC4)C3=O)cc21,216 to 220 °C
8,O=C(O)CCc1ccc(Oc2ccc3c(c2)S(=O)(=O)NC2CCCN32)cc1 (stereo not given),178 to 183 °C
9,O=C(O)CCC(=O)C(Cc1ccccc1)NC(=O)c1ccccc1 (stereo not given),143 to 146 °C
10,O=C(O)[C@H]1CCn2c(cc3ccccc32)C1,244 to 246 °C
11,O=C(C=Cc1ccc2ccccc2c1)c1cnc2sc3c(n12)CCCCC3,185 to 188 °C
12,CCOC(=O)C(Cc1cc(Cl)c(Sc2ccc(OC)c(Cc3ccc(OC)nc3)c2)c(Cl)c1)(NC(C)=O)C(=O)OCC,170 to 171 °C
13,COC(=O)c1ccccc1COc1cccc2oc(C)cc12,93 to 95 °C
14,NS(=O)(=O)c1ccc(N2CCN(CCC3=CCCc4ccccc43)CC2)cc1,222 °C
15,CCN(CC)C(=O)Nc1cc(C(C)(C)C)on1,122 to 124 °C
16,Cc1c(C#N)n(-c2ccc(Cl)cc2)c(=O)n1C,138 to 140 °C
17,Fc1cc(F)c2c(c1)CC(n1cc[nH]c1=S)CC2 (stereo not given),250 to 251 °C
18,CCCC[C@H](NC(=O)[C@H](CC(C)C)NC(=O)c1cc2cccc(F)c2o1)C(=O)CSCc1ccco1,102 to 103 °C
19,c1cnc(-c2cc(C3CC3)on2)cn1,86 to 91 °C
20,COc1ccc2c(c1OCc1ccccc1)CC(C(=O)O)N(C(=O)N(C)c1ccccc1)C2 (racemic),134 to 136 °C
21,CC1=C(c2ccccc2)C(=O)N(C(C)(C)c2cc(Cl)c(F)c(Cl)c2)C1,164 to 167 °C
22,Cc1cccc(C)c1N1CCCN(c2c(C)cccc2C)C1=N,68 to 71 °C
23,O=C1c2ccc(Nc3ccc(F)cc3F)cc2CCc2cc(OCCO)ccc21,138 °C
24,OCC(O)COCc1nnc2n1-c1ccc(Cl)cc1C(c1ccccc1)=NC2 (stereo not given),130 to 134 °C
25,O=c1nc(-c2ccc3c(c2)OCCO3)c2ccc3c(c2[nH]1)OCO3,> 300 °C

row,SMILES,melting point
1,O=C(O)c1cc(F)cc(C(F)(F)F)c1O,76 to 83 °C
2,CSc1sc(-c2ncn(C)n2)c2c1C(=O)CC(C)(C)C2,146 to 148 °C
3,Cc1nc(N)ccc1Cl,74 to 75 °C
4,CC(=O)NC1=NN(c2ccc(Cl)cc2)CC1,171 to 173 °C
5,CCOC(=O)Cc1ccc(NC(=O)/C=C/c2c(C)noc2-c2ccccc2)cc1,164 to 165 °C
6,COc1ccc(OCCOc2ccc(C(=O)C(=O)O)cc2)cc1OC,140 to 141 °C
7,Cn1c([N+](=O)[O-])cnc1COc1ccc(S(C)(=O)=O)cc1,155 °C
8,CN(C)C(=O)C(C)(C)n1cc(Br)c(-c2ccccc2)n1,122 to 124 °C
9,Cc1cc(Br)cnc1C#N,86 to 88 °C
10,COc1cc2c(Nc3ccc(Sc4nccn4C)c(Cl)c3)c(C#N)cnc2cc1N1CCN(CCn2ccnc2)CC1,251 to 253 °C
11,CC(C#N)(Cn1ncc2cc([N+](=O)[O-])ccc21)NC(=O)c1ccc(OC(F)(F)F)cc1 (stereo not given),203 to 205 °C
12,COc1ccc(CNC(=O)c2cc3c(=O)n(C[C@H]4CC[C@H](C(=O)O)CC4)cnc3cn2)cc1,232 to 233 °C
13,CCOC(=O)CCC(=O)c1ccc(-c2ccccc2F)cc1,56 to 58 °C
14,O=C(O)C(c1ccccc1)N1C(=O)c2cccc([N+](=O)[O-])c2C1=O (stereo not given),213 to 229 °C
15,CCN1CCCC1=NC(=O)Nc1cccc(Cl)c1,122 to 124 °C
16,O=C(O)C1c2ccccc2COc2cc(Br)ccc21 (stereo not given),217 to 218 °C
17,COC(=O)CCCCCC(O)c1ccc(-n2ccnc2)cc1 (stereo not given),77 to 78 °C
18,CCc1cc2c(cc1CCSCC(N)=O)OCO2,98 to 99 °C
19,CCOc1ccc(OCc2cccc(OCc3nc(-c4ccccc4)oc3C)c2)cc1CCC(=O)O,136 to 137 °C
20,CCCCCCCCCCCCc1c[nH]c(C(=O)O)c1,152 to 153 °C
21,COc1ccc([N+](=O)[O-])c(C#N)c1C,128 to 130 °C
22,Oc1ccc2nc(-c3ccc(O)c(F)c3)oc2c1,269 to 271 °C
23,O=C1OC(Cc2ccccc2)CN1C(=O)c1ccccc1 (stereo not given),109 to 110 °C
24,O=S1(=O)c2cccc3cccc(c23)N1CCN1CCC(Cc2cc3cc(F)ccc3[nH]2)CC1,154 °C
25,CC(C)(Cc1ccc(Cl)cc1Cl)C(O)(Cn1cncn1)Cn1cncn1,126 °C

row,SMILES,melting point
1,O=C1Nc2ccc(Cl)cc2C1CC1CCCCC1 (stereo not given),152 to 153 °C
2,CC(C)(C)OC(=O)NC1CCCCCC=CC2CC2(C(=O)NS(=O)(=O)C2CC2)NC(=O)C2CC(OC(=O)c3ccc4c(c3)OCO4)CN2C1=O (stereo not given),153 to 155 °C
3,CCOC(=NC(=O)c1ccco1)N1Cc2ccccc2-c2ccccc2C1,87 to 92 °C
4,COC(=O)c1ccc(C(C(N)=O)C(C)c2cc(Cl)ccc2N2CCCC(C)C2)cc1 (stereo not given),160 to 162 °C
5,CC(C)(C)c1cc(-c2n[nH]c(=O)[nH]2)cc(C(C)(C)C)c1O,276 to 280 °C
6,COc1ccnc(CCc2nc3cccnc3n2-c2ccc(OCc3ccccc3)c(F)c2)c1,168 to 170 °C
7,CC(=O)c1ccc(S(=O)(=O)Nc2ccon2)cc1,165 to 166 °C
8,CCOC(=O)c1c(NCc2ccc(OC)c(Cl)c2)ccnc1Cl,116 to 118 °C
9,CC(=O)OCC(=O)C1(O)C(C)CC2C3CCC4=CC(=O)C=CC4(C)C34OC4CC21C (stereo not given),180 to 186 °C
10,CCCCCC(O)CCN1C(=O)NC(=O)C1CCCCCCC(=O)O (stereo not given),63 to 65 °C
11,ClCc1coc(-c2ccoc2)n1,70 to 71 °C
12,Cc1nc(-c2ccc(C(F)(F)F)cc2)sc1CSc1cc(C(C)C)c(OCC(=O)O)c(C(C)C)c1,161 to 163 °C
13,COc1cc(N2CCCN(C3CCN(C)CC3)CC2)ccc1Nc1ncc2ccc(-c3ccccc3OC)n2n1,71 to 80 °C
14,CC(=O)C(Cc1nsc2ccc(-n3c(=O)cc(C(F)(F)F)n(C)c3=O)cc12)C(=O)OC(C)(C)C (stereo not given),76 to 78 °C
15,Cc1nnc(SCC(=O)C23CC4CC(CC(C4)C2)C3)n1C(C)C,119 to 120 °C
16,CS(=O)(=O)N1CCC(C(CS(=O)(=O)c2ccc(Oc3ccc(OC(F)(F)F)cc3)cc2)N(O)C=O)CC1 (stereo not given),178 to 179 °C
17,Cc1ccc(C2=NNC(=O)Cc3cc4c(cc32)OCO4)cc1,222 to 224 °C
18,Cc1cc(Oc2cccc(C(F)(F)F)c2)nn1C(=O)Nc1ccc(Cl)cc1Cl,113 to 114 °C
19,CC(=O)Nc1c(C)nc(N)c(C(=O)NNS(=O)(=O)c2ccccc2)c1C,216 to 218 °C
20,Cc1cccc(OC(=O)C(=O)c2c[nH]c3ccccc23)c1,194 to 197 °C
21,CCOC(=O)C(C#N)=NOC(=O)Oc1cc(Cl)c(Cl)cc1Cl,101 to 103 °C
22,Cc1c(Oc2ccc(C(=O)NC(C)C)cc2)c2cc(F)ccc2n1CC(=O)O,218 to 219 °C
23,Cn1cc(C(O)CO)c2c3c(c(-c4ccccc4Cl)cc21)C(=O)NC3=O (stereo not given),179 to 183 °C
24,O=C(OCc1ccc(Cl)cc1)c1ncccc1OCc1ccc(Cl)cc1,92 to 94 °C
25,CCCc1c(C(N)=O)sc(SC)c1-c1oncc1-c1ccccc1,140 to 141 °C

row,SMILES,melting point
1,C[C@]1(CN2CCC(OCc3ccc(C(F)(F)F)cc3)CC2)Cn2cc([N+](=O)[O-])nc2O1,91 to 92 °C
2,N#Cc1nc2cccc(O)c2s1,225 °C
3,COC(=O)CCCCCCCCOC1OC(CO)C(O)C(OC2OC(CO)C(O)C(O)C2O)C1OC1OC(C)C(O)C(O)C1O (stereo not given),147 to 150 °C
4,COc1ccc(OC)c2c1CCC(O)(CCO)C2 (stereo not given),121 to 122 °C
5,O=C(Nc1ccc(N2CC3CC3C2)nc1)c1cc2cc(F)ccc2n1Cc1cccc(F)c1 (stereo not given),193 to 195 °C
6,Cc1sc2nc(N(CCO)CCO)nc(NCc3ccccn3)c2c1Br,152 °C
7,COc1cc(N)cc2c1nc(C(F)F)n2-c1nc(N2CCOCC2)nc(N2CCN(S(C)(=O)=O)CC2)n1,280 to 283 °C
8,CC(C)=CCOc1ccc(C(=O)C=Cc2ccc(F)cc2)c(O)c1,96 to 97 °C
9,CCCC(Cc1ccc(OCCNC(=O)c2ccc(-c3ccccn3)cc2)cc1)C(=O)O (stereo not given),81 to 82.5 °C
10,CC(C)NC(=O)c1ccc(F)c2c1CC(N(CCCc1c[nH]c3ccc(F)cc13)C1CCC1)CO2 (stereo not given),127 °C
11,Cc1c(N2CC[C@H]([C@@H](C)NC(=O)OC(C)(C)C)C2)c(F)cc2c(=O)n(N)c(=O)n(C3CC3)c12,84 to 86 °C
12,Clc1ccc2c(NCc3ccccc3)c3cccn3nc2c1,184 to 186 °C
13,FCc1cccc(C#CCCn2cc(-c3ccc(F)cc3)nn2)n1,100 to 103 °C
14,CN(C(=O)CSc1nccc(-c2ccccn2)n1)c1ccc(Cl)cc1,142 °C
15,COc1ccc(CNN2C(=O)CC(C)c3cnc(SC)nc32)cc1Cl (stereo not given),118 to 120 °C
16,Cn1cc(C(=O)c2cnc[nH]2)cc1C(=O)c1ccc(Cl)cc1,198 to 200 °C
17,CCOC(=O)c1cc(C)n(-c2cccc(C(C)=O)c2)c1-c1ccccc1,100 to 102 °C
18,CC(C)OC(=O)N1c2cncnc2NC(=O)C1C (racemic),160 to 162 °C
19,COc1cc(Nc2c(C#N)cnc3cc(-c4ccc(CN5CCC[C@@H]5C(N)=O)cc4)ccc23)c(Cl)cc1Cl,180 to 182 °C
20,CCCCOc1ccc(CC(=O)N[C@@H](C(=O)O)[C@@H](C)O)cc1,90 to 94 °C
21,CN(C)CC(F)(F)[C@H](O)[C@@H](N)CC1CCCCC1,47 to 49 °C
22,Cn1c(=O)c(-c2ccccc2)nc2cc3c(cc21)OC(F)(F)O3,165 °C
23,Cc1c(C(=O)O)oc2ccccc2c1=O,192 to 193 °C
24,Nc1nc(-c2ccc(CN3CCCCCC3)s2)n[nH]1,160 to 161 °C
25,CCCCc1nc2c(N)nc3ccccc3c2n1CC1(O)CCOCC1,235 to 236 °C
